pIC50: −log10 of the molar value.
Key:
Type in all cases: cell-based
human TLR7 = target: T1, human TLR7 (Homo sapiens, UniProt Q9NYK1); experiment: TLR7 inhibition reporter assay (HEK-Blue SEAP reporter, gardiquimod stimulation); conditions: HEK-Blue cells overexpressing human TLR7, SEAP reporter, gardiquimod 7.5 μM, 22 hour incubation
T1 construct: host or cells: HEK-Blue cells
T1 sequence (Q9NYK1 27-1049): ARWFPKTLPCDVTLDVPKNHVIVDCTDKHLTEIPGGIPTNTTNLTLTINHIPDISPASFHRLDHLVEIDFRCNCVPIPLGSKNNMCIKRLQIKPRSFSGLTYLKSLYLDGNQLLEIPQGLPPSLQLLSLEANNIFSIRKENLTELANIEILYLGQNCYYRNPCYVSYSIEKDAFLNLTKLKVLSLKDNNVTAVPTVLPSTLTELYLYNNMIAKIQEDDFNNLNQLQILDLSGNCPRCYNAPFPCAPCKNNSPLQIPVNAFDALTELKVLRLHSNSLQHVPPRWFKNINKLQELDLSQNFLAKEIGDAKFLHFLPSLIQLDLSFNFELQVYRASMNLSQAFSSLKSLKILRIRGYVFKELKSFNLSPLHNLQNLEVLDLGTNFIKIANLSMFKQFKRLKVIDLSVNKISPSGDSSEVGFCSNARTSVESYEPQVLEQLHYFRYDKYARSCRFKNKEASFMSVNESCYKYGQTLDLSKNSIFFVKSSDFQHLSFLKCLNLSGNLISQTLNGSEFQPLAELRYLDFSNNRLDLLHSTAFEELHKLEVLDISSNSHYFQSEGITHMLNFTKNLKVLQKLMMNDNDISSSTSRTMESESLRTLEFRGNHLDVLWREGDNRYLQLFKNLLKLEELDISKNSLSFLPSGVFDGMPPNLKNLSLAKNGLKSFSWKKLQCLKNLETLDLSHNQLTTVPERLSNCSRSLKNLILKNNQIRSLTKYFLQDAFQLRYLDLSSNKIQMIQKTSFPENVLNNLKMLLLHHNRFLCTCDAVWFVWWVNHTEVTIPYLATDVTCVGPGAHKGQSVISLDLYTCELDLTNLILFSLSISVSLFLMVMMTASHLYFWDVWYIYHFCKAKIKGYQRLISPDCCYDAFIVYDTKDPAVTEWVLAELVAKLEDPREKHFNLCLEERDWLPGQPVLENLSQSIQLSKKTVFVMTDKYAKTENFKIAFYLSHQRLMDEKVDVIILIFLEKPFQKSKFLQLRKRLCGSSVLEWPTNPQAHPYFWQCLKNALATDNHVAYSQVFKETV
Summary of the method: (§1)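 Agonists used: gardiquimod 7.5 μM (TLR7), R848 15.9 μM (TLR8), ODN2006 5 nM (TLR9), added after 30 min room-temperature compound pre-treatment (0.05 nM–50 μM) of receptor-overexpressing HEK-Blue cells. SEAP reporter (NF-κB/AP-1 driven) read after 22 h at 37 °C; inhibition scaled between agonist+DMSO and reference-inhibitor wells.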

human TLR9 = target: T2, human TLR9 (Homo sapiens, UniProt Q9NR96); experiment: TLR9 inhibition reporter assay (HEK-Blue SEAP reporter, ODN2006 stimulation); conditions: HEK-Blue cells overexpressing human TLR9, SEAP reporter, ODN2006 5 nM, 22 hour incubation
T2 construct: host or cells: HEK-Blue cells
T2 sequence (Q9NR96 26-1032): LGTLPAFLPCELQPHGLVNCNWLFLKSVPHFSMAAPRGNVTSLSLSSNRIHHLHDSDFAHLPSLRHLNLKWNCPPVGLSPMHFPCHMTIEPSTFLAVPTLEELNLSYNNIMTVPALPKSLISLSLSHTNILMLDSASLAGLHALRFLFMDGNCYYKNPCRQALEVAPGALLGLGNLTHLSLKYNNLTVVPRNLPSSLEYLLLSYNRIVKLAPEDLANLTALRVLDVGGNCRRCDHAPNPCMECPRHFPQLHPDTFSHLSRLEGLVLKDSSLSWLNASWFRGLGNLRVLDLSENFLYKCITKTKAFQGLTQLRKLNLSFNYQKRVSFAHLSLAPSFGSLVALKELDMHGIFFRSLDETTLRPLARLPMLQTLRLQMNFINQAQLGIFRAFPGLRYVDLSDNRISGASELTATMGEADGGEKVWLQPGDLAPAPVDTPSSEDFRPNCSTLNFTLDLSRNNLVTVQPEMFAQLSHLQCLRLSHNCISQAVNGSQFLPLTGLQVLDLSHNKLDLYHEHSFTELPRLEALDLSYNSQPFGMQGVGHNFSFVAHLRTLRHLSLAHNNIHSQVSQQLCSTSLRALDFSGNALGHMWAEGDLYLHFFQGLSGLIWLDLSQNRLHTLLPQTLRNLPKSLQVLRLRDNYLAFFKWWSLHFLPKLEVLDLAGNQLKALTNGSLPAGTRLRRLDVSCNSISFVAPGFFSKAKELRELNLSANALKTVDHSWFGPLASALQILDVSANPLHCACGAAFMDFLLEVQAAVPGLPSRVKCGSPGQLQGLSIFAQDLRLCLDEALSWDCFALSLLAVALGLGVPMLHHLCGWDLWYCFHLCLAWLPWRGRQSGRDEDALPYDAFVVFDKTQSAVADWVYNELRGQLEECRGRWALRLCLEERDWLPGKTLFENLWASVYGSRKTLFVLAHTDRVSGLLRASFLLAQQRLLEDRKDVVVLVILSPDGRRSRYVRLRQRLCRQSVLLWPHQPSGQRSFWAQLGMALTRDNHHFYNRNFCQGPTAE
Summary of the method: as §1

human TLR8 = target: T3, human TLR8 (Homo sapiens, UniProt Q9NR97); experiment: TLR8 inhibition reporter assay (HEK-Blue SEAP reporter, R848 stimulation); conditions: HEK-Blue cells overexpressing human TLR8, SEAP reporter, R848 15.9 μM, 22 hour incubation
T3 construct: host or cells: HEK-Blue cells
T3 sequence (Q9NR97 27-1041): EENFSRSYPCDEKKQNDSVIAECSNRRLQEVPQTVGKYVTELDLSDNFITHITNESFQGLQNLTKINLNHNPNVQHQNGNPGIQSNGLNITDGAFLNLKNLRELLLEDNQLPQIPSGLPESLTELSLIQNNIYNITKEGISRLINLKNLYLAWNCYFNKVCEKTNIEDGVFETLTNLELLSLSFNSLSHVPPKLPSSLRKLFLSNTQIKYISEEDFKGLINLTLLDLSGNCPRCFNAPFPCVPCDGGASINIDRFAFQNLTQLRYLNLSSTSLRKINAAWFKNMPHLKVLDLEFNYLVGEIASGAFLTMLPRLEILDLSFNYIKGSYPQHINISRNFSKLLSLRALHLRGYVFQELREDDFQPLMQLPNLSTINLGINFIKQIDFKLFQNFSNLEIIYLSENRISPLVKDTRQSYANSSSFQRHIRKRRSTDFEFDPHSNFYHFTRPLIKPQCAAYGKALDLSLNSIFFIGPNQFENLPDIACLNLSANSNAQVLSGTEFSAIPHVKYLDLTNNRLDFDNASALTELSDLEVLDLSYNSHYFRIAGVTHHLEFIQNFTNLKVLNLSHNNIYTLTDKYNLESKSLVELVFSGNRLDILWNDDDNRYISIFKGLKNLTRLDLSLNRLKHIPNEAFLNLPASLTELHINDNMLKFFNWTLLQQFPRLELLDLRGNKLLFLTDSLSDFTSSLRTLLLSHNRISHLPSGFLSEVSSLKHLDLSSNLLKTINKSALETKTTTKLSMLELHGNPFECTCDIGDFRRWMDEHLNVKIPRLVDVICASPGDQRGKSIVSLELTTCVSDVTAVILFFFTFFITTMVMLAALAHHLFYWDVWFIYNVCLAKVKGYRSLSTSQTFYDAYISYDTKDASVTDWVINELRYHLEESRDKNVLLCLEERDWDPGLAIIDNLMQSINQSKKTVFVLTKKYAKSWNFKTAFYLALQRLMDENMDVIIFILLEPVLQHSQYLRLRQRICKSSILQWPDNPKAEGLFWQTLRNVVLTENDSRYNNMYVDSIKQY
Summary of the method: as §1

SMILES	pIC50 (human TLR7)	pIC50 (human TLR9)	pIC50 (human TLR8)
CNC(=O)c1cccc(-c2cc(-c3[nH]c4ccc(C5CCNCC5)cc4c3C(C)C)cn(C)c2=O)c1 [Example 59, 3-(5-(3-isopropyl-5-(piperidin-4-yl)-1H-indol-2-yl)-1-methyl-2-oxo-1,2-dihydropyridin-3-yl)-N-methylbenzamide]	7.33	5.23	6.57
CC(C)c1c(-c2ccc(=O)n(C)c2)[nH]c2ccc(C3CCN(C4COC4)CC3)cc12 [Example 179, 5-(3-isopropyl-5-(1-(oxetan-3-yl)piperidin-4-yl)-1H-indol-2-yl)-1-methylpyridin-2(1H)-one]	7.02	5.41	7.54
Cc1c(-c2[nH]c3ccc(C4CCN(C5CCOCC5)CC4)cc3c2C(C)C)cc(C#N)c(=O)n1C [Example 220, 5-(3-isopropyl-5-(1-(tetrahydro-2H-pyran-4-yl)piperidin-4-yl)-1H-indol-2-yl)-1,6-dimethyl-2-oxo-1,2-dihydropyridine-3-carbonitrile]	7.61	5.56	8.85
Cc1cc(-c2[nH]c3ccc(C4CCN(CC(=O)N(C)C)CC4)cc3c2C(C)C)cn(CCO)c1=O [Example 167, 2-(4-(2-(1-(2-hydroxyethyl)-5-methyl-6-oxo-1,6-dihydropyridin-3-yl)-3-isopropyl-1H-indol-5-yl)piperidin-1-yl)-N,N-dimethylacetamide]	7.21	4.31	7.81
CNC(=O)CN1CCC(c2ccc3[nH]c(-c4cn(C)c(=O)c(C#N)c4C)c(C(C)C)c3c2)CC1 [Example 146, 2-(4-(2-(5-cyano-1,4-dimethyl-6-oxo-1,6-dihydropyridin-3-yl)-3-isopropyl-1H-indol-5-yl)piperidin-1-yl)-N-methylacetamide]	7.41	5.16	8.35
COCCN1CCC(c2ccc3[nH]c(-c4cc(-c5ccc(C)nc5)c(=O)n(C)c4)c(C(C)C)c3c2)CC1 [Example 349, 5-(3-isopropyl-5-(1-(2-methoxyethyl)piperidin-4-yl)-1H-indol-2-yl)-1,6′-dimethyl-[3,3′-bipyridin]-2(1H)-one]	7.84	6.11	7.14
Cc1cc(-c2[nH]c3ccc(C4CCN(CC5(O)CCOCC5)CC4)cc3c2C(C)C)c(C)n(C)c1=O [Example 320, 5-(5-(1-((4-hydroxytetrahydro-2H-pyran-4-yl)methyl)piperidin-4-yl)-3-isopropyl-1H-indol-2-yl)-1,3,6-trimethylpyridin-2(1H)-one]	7.85	5.64	8.77

Now those with a higher pIC50 (human TLR7), led by results:

pIC50 (human TLR7)	pIC50 (human TLR9)	pIC50 (human TLR8)	SMILES
8.28	5.00	8.29	Cc1cc(-c2[nH]c3ccc(C4CCN([C@H]5COCC[C@@H]5O)CC4)cc3c2C(C)C)cn(C)c1=O [Example 314, 5-(5-(1-((3S,4S)-4-hydroxytetrahydro-2H-pyran-3-yl)piperidin-4-yl)-3-isopropyl-1H-indol-2-yl)-1,3-dimethylpyridin-2(1H)-one]
7.86	6.39	7.31	CC(C)c1c(-c2cc(-c3cccc(C#N)c3)c(=O)n(C)c2)[nH]c2ccc(C3CCNCC3)cc12 [Example 56, 3-(5-(3-isopropyl-5-(piperidin-4-yl)-1H-indol-2-yl)-1-methyl-2-oxo-1,2-dihydropyridin-3-yl)benzonitrile]
8.29	4.60	7.98	Cc1cc(-c2[nH]c3ccc(C4CCN(C5COC5)CC4)cc3c2C(C)C)cn(C)c1=O [Example 171, 5-(3-isopropyl-5-(1-(oxetan-3-yl)piperidin-4-yl)-1H-indol-2-yl)-1,3-dimethylpyridin-2(1H)-one]
8.23	5.26	8.14	Cc1cc(-c2[nH]c3ccc(C4CCN(C(C)C)CC4)cc3c2C(C)C)cn(C)c1=O [Example 182, 5-(3-isopropyl-5-(1-isopropylpiperidin-4-yl)-1H-indol-2-yl)-1,3-dimethylpyridin-2(1H)-one]
8.13	6.07	7.94	Cc1cc(-c2[nH]c3ccc(C4CCN(CC(=O)N5CC[C@@H](O)C5)CC4)cc3c2C(C)C)cn(C)c1=O [Example 120, (R)-5-(5-(1-(2-(3-hydroxypyrrolidin-1-yl)-2-oxoethyl)piperidin-4-yl)-3-isopropyl-1H-indol-2-yl)-1,3-dimethylpyridin-2(1H)-one]
8.28	5.69	8.01	Cc1c(-c2[nH]c3ccc(C4CCN(C5CCCC5)CC4)cc3c2C(C)C)cn(C)c(=O)c1Cl [Example 97, 3-chloro-5-(5-(1-cyclopentylpiperidin-4-yl)-3-isopropyl-1H-indol-2-yl)-1,4-dimethylpyridin-2(1H)-one]
8.34	5.16	8.44	Cc1cc(-c2[nH]c3ccc(C4CCN(CC5CCOC5)CC4)cc3c2C(C)C)cn(C)c1=O (stereo not drawn) [Example 225, 5-(3-isopropyl-5-(1-((tetrahydrofuran-3-yl)methyl)piperidin-4-yl)-1H-indol-2-yl)-1,3-dimethylpyridin-2(1H)-one]

— patent US11447466B2, “Substituted indole compounds useful as inhibitors of TLR7/8/9” (BRISTOL-MYERS SQUIBB COMPANY, priority 2017, dated 2022)
